Measured values published in ChEMBL document CHEMBL3507680, “University of Dundee, Gates Library screen for HepG2 cell viability”.

Experiment: Human HepG2 cell viability assay in 384 well format
Type: toxicity, cell-based
Design: dose 125 nL, time 70.5 hour; cytotoxicity at 70.5 h: concentration not given beside the values
Settings: HepG2 cells, read-out: Inhibition

SMILES | cytotoxicity at 70.5 h [%]
CC(NCc1ccsc1)c1ccc2c(c1)NC(=O)CO2 (stereo not drawn) | -13.9
CC(c1ncc(C(C)(C)C)o1)N1CCN(Cc2ccncc2)CC1 (stereo not drawn) | -12.1
O=S(=O)(C1CC1)N1CCOC2(CCCN(Cc3ccccn3)C2)C1 (stereo not drawn) | -5.41
FC(F)(F)c1ccc2[nH]c([C@H]3CCNC3)nc2c1 | -2.06
Cc1ncsc1CN(Cc1ccccc1)Cc1ccncc1 | 8.23
CC(=O)c1c(C)cc(C)c(CS(=O)(=O)c2nccn2C)c1C | 8.95
CCc1cnc(N2CCC3(CCN(Cc4cccc(C)c4)C3=O)C2)nc1 (stereo not drawn) | 1.75
c1cc(CN2CCC[C@@H](Cn3nnc(-c4cnccn4)n3)C2)ccn1 | -2.89
CC1c2ncc(CN3CCN(C)CC3)n2CCN1Cc1cccnc1 (stereo not drawn) | -15.8
Cc1ccc(N2CCN(C3CCc4ccccc4C3)CC2)nn1 (stereo not drawn) | -8.25
O=C1CCC2(CCOC2)CN1Cc1nc2ccc(Cl)cc2[nH]1 (stereo not drawn) | -1.72
CN(Cc1ccsc1)C(=O)C1CCC(=O)N(Cc2ccccn2)C1 (stereo not drawn) | -5.03
CC(C)c1ncc(CN2C[C@@H](CN3CCC(CO)CC3)[C@@H](CO)C2)cn1 | -6.31
CC(=O)N1CCN(C(=O)c2csc(-c3ccc(C)cc3C)n2)CC1 | 14.1
Cc1nn(Cn2ccc(C(=O)N3CCOCC3)n2)c(C)c1Cl | -9.86
Cc1noc(CCCC(=O)N2CSCC2C(=O)NCC2CC2)n1 (stereo not drawn) | -7.96
COc1cccc(CNC[C@@]2(COc3cccnc3)C[C@@H](O)[C@@H](O)C2)c1 | -3.95
O=C(CSCc1ccncc1)N(Cc1ccsc1)C1CC1 | 0.347
CC(C)N1CCC2(CC1)CC(=O)N(Cc1cc(F)cc(F)c1)C2 | -2.98
Cn1ccnc1CN1CCCC1c1noc(C2CC2)n1 (stereo not drawn) | 1.39
N#Cc1cccc(CN2C[C@H](NC(=O)C3CC3)[C@H]3OCCC[C@H]32)c1 | -14
CCC(C)N(Cc1cnc(NCC(=O)O)nc1)Cc1ccsc1 (stereo not drawn) | -7.35
Cn1ccc(C(=O)N2CCN(c3ccccn3)CC2)cc1=O | -1.81

SMILES | cytotoxicity at 70.5 h [%]
O=C(CCc1ccco1)NS(=O)(=O)N1CCOc2ccccc21 | -1.31
CNS(=O)(=O)CC(=O)NC(C)Cc1ccc(Br)cc1 (stereo not drawn) | 2.68
O=S(=O)(c1ccccc1)N1CCN(Cc2ccc(F)cc2Br)CC1 | -8.77
CCOc1cccc(C(=O)N2CCC(c3n[nH]c(C4CC4)n3)CC2)c1 | -8.11
CN(C)Cc1cncc2c1CCN(C1CCOCC1)C2 | -8.32
Cc1noc([C@H]2COC[C@H]3CN(C(=O)Cc4ccsc4)C[C@H]32)n1 | -20.1
O=C1N(c2cccc(F)c2)Cc2nc(=O)n(Cc3ccc(Cl)cc3)n21 | -12.7
NC(=O)C1CCN(C(=O)NC2CCc3cc(Cl)ccc32)CC1 (stereo not drawn) | -7.29
C[S+]([O-])CCNC(=O)N1CCSC(C)(C)C1 (stereo not drawn) | -1.1
COCCN(C)C[C@@H]1CCC[C@@H]2CN(Cc3ccc(OC)nc3)C[C@@H]21 | 0.0071
CCOc1ccccc1Oc1ccc(CN)cn1 | -7.48
O=C(Nc1cccc(CN2CCOC2=O)c1)N1CCCC1 | -6.57
Cc1cccc(-c2nccn2C2CC(=O)N(C(C)C)C2)n1 (stereo not drawn) | 0.181
CCCc1cc(CNC2CCN(c3nc4ccccc4s3)CC2)on1 | -6.6
COCc1ncc(CN(Cc2ccco2)C(C)C(C)C)cn1 (stereo not drawn) | -15.5
CC[C@H]1CN2CC[C@H]1C[C@@H]2CNCc1ccc(N(C)C)cc1 | 26.4
CCN1CCOCC2(CCCN(C(=O)c3ccccc3F)C2)C1 (stereo not drawn) | 8.58
CC(NC(=O)CN1CCN(c2cccc(Cl)c2)CC1)c1ccco1 (stereo not drawn) | -5.94
OC(CNCCn1cccn1)COc1cccc(C(F)(F)F)c1 (stereo not drawn) | -1.44
CNc1ncccc1CN1CCN(C)CC(C(=O)N(C)C)C1 (stereo not drawn) | 14.6
CCn1ncnc1CN(CCOC)Cc1ccc(C)cc1 | -4.05
Cn1ncc2c1NC(=O)CC2c1ccc(Cl)cc1Cl (stereo not drawn) | -15
CC(C)c1n[nH]c(C(=O)Nc2cc[nH]n2)c1Br | 7.8

SMILES | cytotoxicity at 70.5 h [%]
O=S(=O)(c1ccc2c(c1)OCCO2)N1CCc2ccccc2C1 | -7.73
COc1c(CNCc2ccc(N3CCOCC3)cc2)c(C)nn1C | -9.85
Cc1noc(C)c1CN1CCC2(CCN(Cc3cccc(F)c3)CC2)C1 | -9.09
CC(C#N)CSc1ccccc1NCC(=O)NC1CCCCC1 (stereo not drawn) | -1.2
CC(C)c1noc(C(C)N2CCN(Cc3noc(C4CC4)n3)CC2)n1 (stereo not drawn) | -10.9
Cc1nn(C)c(C)c1CC(=O)NCc1ccnc(OC2CCCC2)c1 | -5.31
O=C1O[C@@H]2CN(CCc3ccccc3)C[C@@H]2N1CCCN1CCOCC1 | -3.23
CC(SCC(=O)NC(N)=O)c1ccccc1F (stereo not drawn) | -8.18
c1ccc(CN2CCOC3(CCCN(c4nccs4)C3)C2)cc1 (stereo not drawn) | -7.62
COC(=O)c1ccc(OCC(=O)N(C)Cc2ccsc2)c(OC)c1 | -5.54
CC(C)[C@@H]1CN(C(=O)C2(c3ccccc3)CC2)C[C@H]1C(=O)O | -3.69
Cc1cnn(C2CN(CC(=O)NCCc3cccs3)C2)c1 | -12.3
CC(C)NC(=O)COc1nc(C(C)C)no1 | 18
NC(=O)NC1CCN(Cc2ccccc2OCC(F)(F)F)CC1 | -4.28
Cc1cnn(CC(C)NCc2nc(-c3ccoc3)no2)c1 (stereo not drawn) | 38.1
Cc1occc1C(=O)Nc1cccc(C(=O)OCC2CCCN2)c1 (stereo not drawn) | 23.7
N#Cc1c(Cl)nsc1N1CCN(CC2CC2)CC1 | 2.5
COCCC(=O)N1C[C@H]2CC[C@@H]1CN(C1Cc3ccccc3C1)C2 | -10
COC(=O)c1ccc2c(-c3ccnc(N[C@@H](C)CO)n3)c[nH]c2c1 | -2.09
CNc1ccnc(N2CCC(c3nnc(CN4CCCC4)n3C)CC2)n1 | 13.4
CC(C)N(Cc1ccccn1)Cc1nc2c(cnn2C)c(=O)[nH]1 | -6.49
CN1CCOC(C(=O)N(C)c2ccc3c(c2)CCO3)C1 (stereo not drawn) | -18.1
N#Cc1ccc(C(=O)N2CCC(c3ncc[nH]3)CC2)cn1 | -7.49

SMILES | cytotoxicity at 70.5 h [%]
CCOC1CCN(C(=O)Nc2ccc(=O)n(C)c2)CC1 | 25
CN(CCC(O)c1ccccc1)Cc1ccccc1C#N (stereo not drawn) | -5.67
Cc1cc(C(=O)NCc2ccc(F)cc2)c2c(C3CCCN3)noc2n1 (stereo not drawn) | -6.52
CCC(=O)N1CCC(c2nc(O)c3c(n2)CN(C2CCCCC2)CC3)C1 (stereo not drawn) | 31.2
CCc1nnsc1C(=O)N1CCOC(c2nc(C(C)C)n[nH]2)C1 (stereo not drawn) | -2.32
Cc1ccc(-c2nc(CN(C)C3CCS(=O)(=O)C3)cs2)o1 (stereo not drawn) | -8.59
Cc1ccc2oc(C(=O)N3CCCC(n4nc(C)cc4C)C3)cc2n1 (stereo not drawn) | -2.12
N[C@H]1CN(C(=O)c2ccccc2OCCc2ccccc2)C[C@@H]1C1CC1 | -8.08
CCOC(=O)c1cnn(-c2cc(Oc3ccccc3)ncn2)c1N | 3.77
COCCCN1CCCC12CCN(c1ncccn1)CC2 | -5.24
NC(=O)CN1CCCN(C(=O)Cc2ccc3c(c2)OCO3)CC1 | -2.14
COc1cccc2c1OCC(C(=O)NCCc1nc3c(s1)CCC3)C2 (stereo not drawn) | -5.62
CC(C)(C)c1n[nH]cc1CNC1CCC(OCC(F)(F)F)CC1 (stereo not drawn) | -11.2
O=C1CCC2(CCN(Cc3ccsc3)CC2)N1Cc1ccccc1 | -10.3
CCC(CO)N(Cc1ccco1)C(=O)c1sccc1NC(C)=O (stereo not drawn) | -5.95
N#CCCN(C(=O)COC1CCCC1)C1CC1 | -0.353
CCOC[C@H]1CC[C@H]2[C@H](CCN2Cc2c(C)noc2C)O1 | -3.26
CC(NC1CCCC1)c1ccccc1-n1cccn1 (stereo not drawn) | -6.22
O=C(C1CCCCC1)N1C[C@H]2CNC[C@H]2C1 | -11
Fc1cccc(N2CCCC3(CN(Cc4nccs4)CCO3)C2)c1 (stereo not drawn) | -13.6
Cc1ccc(C(=O)N(C2CC2)C2CC(=O)NC2=O)cc1F (stereo not drawn) | -3.53
Cc1cc(=O)n2ncnc2n1CC(O)c1cc(Cl)ccc1Cl (stereo not drawn) | -22.2
CC(C)(C)n1ncc(NCC(O)c2ccc(F)c(F)c2)c(Cl)c1=O (stereo not drawn) | -0.243

SMILES | cytotoxicity at 70.5 h [%]
CCN(Cc1ccoc1)C(=O)NC1CCN(CC2CC2)C1 (stereo not drawn) | -5.67
CCN1CC2(CCCCN2C(=O)C2CCCCC2)CC1=O (stereo not drawn) | -7.76
Cc1ccc(C)c(C(=O)Nc2ccc(OC3CCN(C)CC3)cc2)c1 | -6.52
O=C(C1CCCN1S(=O)(=O)C1CCCC1)N1CCSCC1 (stereo not drawn) | -5.09
C1Cc2nc(CCNc3nc(C4CC4)nc4c3CCNCC4)sc2C1 | -4.01
CCN1CCN(C2CCN(Cc3nnc(C(C)(C)C)o3)CC2)C1=O | -11.1
Cc1cc(OCC(=O)N2CCCC(c3noc(C(C)C)n3)C2)no1 (stereo not drawn) | -1.68
c1csc(CCC2CCCCN2Cc2noc(C3CC3)n2)c1 (stereo not drawn) | -13
CN(Cc1ccccc1C(F)(F)F)C(C(N)=O)c1ccccc1 (stereo not drawn) | 10.2
OCc1ccc(CNc2ccccc2CN2CCC(O)CC2)o1 | -4.84
COc1cccc2ccc(CN3CCN(c4ncccn4)CC3)nc12 | -5.87
CC[C@H]1N(Cc2ccc(OC)cc2)CCC[C@]12CCC(=O)N2C | -13
O=S1(=O)NC(C2CCCN(S(=O)(=O)N3CCCC3)C2)=Nc2ccccc21 (stereo not drawn) | -6.9
COc1cccc(-c2nc(CNC(C)Cn3cccn3)cs2)c1 (stereo not drawn) | 12.8
CN(C)c1ccc(-c2nnc([C@H]3CCN(C4CCCCC4)C3)o2)cc1 | -4.32
Cn1cc(-c2nnn3c2COC(CNCc2ccncc2)C3)cn1 (stereo not drawn) | -2.68
Cn1ccc(NC(=O)CN2C[C@H]3CC[C@@H]2CN(S(C)(=O)=O)C3)n1 | 0.433
CCc1ccccc1CNC(=O)CCc1cnn(C)c1 | -8.72
O=C1CCC2(CCOC2)CN1Cc1nncn1CCc1ccccc1 (stereo not drawn) | 4.96
COc1ccc(CNC(C)c2cnn(C)c2)cc1OC1CCCC1 (stereo not drawn) | -3.45
CC(C)Nc1nc2c(s1)C(=O)CN(C(=O)NCCc1ccccc1)C2 | -4.98
